Measured values taken from ChEMBL document CHEMBL1143118, “6-Acetyl-7,7-dimethyl-5,6,7,8-tetrahydropterin is an activator of nitric oxide synthases” (Bioorg Med Chem Lett, 2008).

Columns and labels:
Macrophage = assay: Effect on nitric oxide production in tetrahydrobiopterin depleted mouse bone marrow macrophages at 1 uM after 72 hrs; assay type: functional
Aortic ring [1] = assay: Relaxation of phenyphrine-induced constriction in rat aortic rings; assay type: functional, tissue-based; conditions: Aorta
Aortic ring [2] = assay: Relaxation of phenyphrine-induced constriction in rat aortic rings at 0.3 mM relative to control; assay type: functional, Aorta; parameters: scale not given: the % may be the effect or the level left
Aortic ring [3] = assay: Relaxation of phenyphrine-induced constriction in rat aortic rings in presence of L-NAME; assay type: functional, Aorta; parameters: scale not given: the % may be the effect or the level left
[4] = Effect on nitric oxide production in tetrahydrobiopterin depleted pig pulmonary artery endothelial cells at 30 uM after 72 hrs; assay type: functional, Sus scrofa, Endothelial cell
Nitric oxide synthase 1 = Nitric oxide synthase 1 (Homo sapiens, UniProt P29475); assay: Activity of tetrahydrobiopterin free nNOS
Chain of Nitric oxide synthase 1 (P29475 whole entry): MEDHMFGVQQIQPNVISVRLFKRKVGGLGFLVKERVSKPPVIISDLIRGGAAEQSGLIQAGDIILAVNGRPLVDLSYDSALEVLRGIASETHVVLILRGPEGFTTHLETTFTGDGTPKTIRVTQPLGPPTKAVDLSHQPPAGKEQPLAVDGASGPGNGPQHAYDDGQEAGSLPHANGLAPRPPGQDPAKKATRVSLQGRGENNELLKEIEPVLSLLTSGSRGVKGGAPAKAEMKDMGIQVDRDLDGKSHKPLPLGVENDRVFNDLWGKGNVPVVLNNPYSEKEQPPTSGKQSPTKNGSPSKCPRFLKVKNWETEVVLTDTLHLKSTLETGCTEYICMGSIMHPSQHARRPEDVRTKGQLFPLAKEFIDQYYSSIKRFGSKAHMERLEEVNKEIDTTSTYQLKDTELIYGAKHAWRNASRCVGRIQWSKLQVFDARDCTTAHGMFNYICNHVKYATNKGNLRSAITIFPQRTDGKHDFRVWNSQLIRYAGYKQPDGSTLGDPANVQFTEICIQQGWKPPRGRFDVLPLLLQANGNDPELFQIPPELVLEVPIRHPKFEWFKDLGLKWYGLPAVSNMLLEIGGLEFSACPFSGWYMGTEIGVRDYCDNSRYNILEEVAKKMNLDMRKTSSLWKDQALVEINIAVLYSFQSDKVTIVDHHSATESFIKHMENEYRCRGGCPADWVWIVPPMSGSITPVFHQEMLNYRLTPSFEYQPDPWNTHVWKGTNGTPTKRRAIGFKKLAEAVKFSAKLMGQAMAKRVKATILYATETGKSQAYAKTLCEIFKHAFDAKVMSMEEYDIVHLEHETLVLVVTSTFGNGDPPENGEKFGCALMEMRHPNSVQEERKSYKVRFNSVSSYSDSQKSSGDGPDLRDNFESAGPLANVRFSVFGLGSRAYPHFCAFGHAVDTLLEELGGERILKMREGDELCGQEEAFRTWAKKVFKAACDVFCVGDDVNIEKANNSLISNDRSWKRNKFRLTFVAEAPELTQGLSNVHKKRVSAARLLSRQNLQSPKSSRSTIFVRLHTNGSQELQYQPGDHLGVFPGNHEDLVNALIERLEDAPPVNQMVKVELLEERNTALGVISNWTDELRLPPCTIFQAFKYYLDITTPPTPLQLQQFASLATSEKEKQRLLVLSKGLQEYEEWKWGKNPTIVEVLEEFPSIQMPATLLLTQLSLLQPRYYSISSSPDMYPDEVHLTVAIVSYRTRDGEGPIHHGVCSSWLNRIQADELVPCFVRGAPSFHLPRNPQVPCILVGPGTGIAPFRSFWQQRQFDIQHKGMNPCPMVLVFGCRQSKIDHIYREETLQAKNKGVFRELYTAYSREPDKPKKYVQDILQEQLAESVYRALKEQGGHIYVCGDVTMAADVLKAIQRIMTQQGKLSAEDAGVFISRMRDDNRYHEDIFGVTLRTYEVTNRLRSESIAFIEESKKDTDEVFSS

EC50 (Aortic ring [1]) [nM]	Kd (Nitric oxide synthase 1) [nM]	Structure (SMILES)	Activity (Macrophage) [µM]	Activity (Aortic ring [2]) [%]	Activity (Aortic ring [3]) [%]	Activity [4] [µM]
10	–	CC(=O)C1=Nc2c(nc(N)[nH]c2=O)NC1(C)C	6.2	24.2	5.4	11.4
–	151000	CC(=O)C1Nc2c(nc(N)[nH]c2=O)NC1(C)C (configuration not stated)	–	–	–	–
–	1120	C[C@H](O)[C@H](O)[C@H]1CNc2nc(N)[nH]c(=O)c2N1 [SAPROPTERIN]	–	–	–	–
